Laboratory results published in patent US20080269266A1, “NOVEL COMPOUNDS 747” (ASTRAZENECA AB, priority 2007, published 2008).
pIC50: −log10 of the molar value.

Tests used:
[1] = biological target: hERG (human ether-a-go-go-related gene) ion channel (Homo sapiens, UniProt Q12809); assay: hERG; type: cell-based
Description: Conclusion: Compounds of the present invention (Example 1) while showing good IGF inhibition, also show decreased Cytochrome P450 inhibition when compared to a known IGF inhibitor (Comparative Example A). Low inhibition of Cytochrome P450 is desirable to ameliorate potential drug: drug interactions. hERG hERG can be tested according to the methods described in Journal of Pharmacolgical and Toxicological Methods 2006, 54, 189-199.

[2] = biological target: T1, human cytochrome P450 (CYP) 2D6 (Homo sapiens, UniProt P10635); assay: Cytochrome P450 Inhibition Assay 2D6; type: in vitro ADME; conditions: test compound final concentrations 0.1-10 μM; substrate MAMC
T1 construct: made in house; host or cells: yeast cell lines (microsomal fractions)
Procedure: (§1) The inhibitory potential (IC50) of test compounds against 5 human cytochrome P450 (CYP) isoforms (1A2, 2C9, 2C19, 3A4 and 2D6) was assessed using an automated fluorescent end point in vitro assay modified from Crespi (Crespi and Stresser, 2000). Microsomal subcellular fractions prepared from Yeast cell lines expressing each human CYP isoform were used as an enzyme source in this assay. The activity of the 5 major human CYPs was determined from the biotransformation of a number of coumarin substrates to fluorescent metabolites, in the presence of NADPH. […] Stock solutions of each CYP, with its respective substrate, were prepared in phosphate buffer pH7.4 (see Table 1) and 178 μl was added to the well of a black solid, flat bottom, 300 μl 96 well is microtitre plate (Corning Costar). […] After pre-incubating at 37° C. for 5 min the reactions were started with addition of NADPH (20 μl, concentration shown in Table 1). […] The appropriate solvent controls and substrate blanks were included in each experiment to assess control activity and identify any inherent fluorescence due to the test compounds. […] The plates were read on a fluorimeter (Spectrafluor Plus) at the appropriate excitation and emission wavelengths (listed in Table 2) and the percent activity, corrected for control, was plotted against the test compound concentration.

[3] = biological target: T2, human cytochrome P450 (CYP) 2C9 (Homo sapiens, UniProt P11712); assay: Cytochrome P450 Inhibition Assay 2C9; type: in vitro ADME; conditions: test compound final concentrations 0.1-10 μM; substrate MFC
T2 construct: made in house; host or cells: yeast cell lines (microsomal fractions)
Procedure: as §1

[4] = Protein binding by equilibrium dialysis; type: in vitro ADME; conditions: rat, equilibrium dialysis against 10% plasma, 37° C., read-out: Protein binding, % free
Procedure: Protein binding is determined by equilibrium dialysis. A 20 iM concentration of compound is dialyzed against 10% plasma at a temperature of 37° C. for 18 h. The resulting samples are analyzed using generic HPLC-UV methodology coupled with mass spectral peak identification. The reported K1 value is the first apparent association constant [proteináligand]/([protein][ligand]), all concentrations being measured in moles/liter (J. Med. Chem., 2006, 49(23), 6672-6682).
Protein binding can be measured in a high-throughput screen by equilibrium dialysis combined with liquid chromatography and mass spectrometry (Wan, H. and Rehngren, M., J. Chromatogr. A 2006, 1102, 125-134).

Sequence of hERG (human ether-a-go-go-related gene) ion channel (Q12809 whole entry): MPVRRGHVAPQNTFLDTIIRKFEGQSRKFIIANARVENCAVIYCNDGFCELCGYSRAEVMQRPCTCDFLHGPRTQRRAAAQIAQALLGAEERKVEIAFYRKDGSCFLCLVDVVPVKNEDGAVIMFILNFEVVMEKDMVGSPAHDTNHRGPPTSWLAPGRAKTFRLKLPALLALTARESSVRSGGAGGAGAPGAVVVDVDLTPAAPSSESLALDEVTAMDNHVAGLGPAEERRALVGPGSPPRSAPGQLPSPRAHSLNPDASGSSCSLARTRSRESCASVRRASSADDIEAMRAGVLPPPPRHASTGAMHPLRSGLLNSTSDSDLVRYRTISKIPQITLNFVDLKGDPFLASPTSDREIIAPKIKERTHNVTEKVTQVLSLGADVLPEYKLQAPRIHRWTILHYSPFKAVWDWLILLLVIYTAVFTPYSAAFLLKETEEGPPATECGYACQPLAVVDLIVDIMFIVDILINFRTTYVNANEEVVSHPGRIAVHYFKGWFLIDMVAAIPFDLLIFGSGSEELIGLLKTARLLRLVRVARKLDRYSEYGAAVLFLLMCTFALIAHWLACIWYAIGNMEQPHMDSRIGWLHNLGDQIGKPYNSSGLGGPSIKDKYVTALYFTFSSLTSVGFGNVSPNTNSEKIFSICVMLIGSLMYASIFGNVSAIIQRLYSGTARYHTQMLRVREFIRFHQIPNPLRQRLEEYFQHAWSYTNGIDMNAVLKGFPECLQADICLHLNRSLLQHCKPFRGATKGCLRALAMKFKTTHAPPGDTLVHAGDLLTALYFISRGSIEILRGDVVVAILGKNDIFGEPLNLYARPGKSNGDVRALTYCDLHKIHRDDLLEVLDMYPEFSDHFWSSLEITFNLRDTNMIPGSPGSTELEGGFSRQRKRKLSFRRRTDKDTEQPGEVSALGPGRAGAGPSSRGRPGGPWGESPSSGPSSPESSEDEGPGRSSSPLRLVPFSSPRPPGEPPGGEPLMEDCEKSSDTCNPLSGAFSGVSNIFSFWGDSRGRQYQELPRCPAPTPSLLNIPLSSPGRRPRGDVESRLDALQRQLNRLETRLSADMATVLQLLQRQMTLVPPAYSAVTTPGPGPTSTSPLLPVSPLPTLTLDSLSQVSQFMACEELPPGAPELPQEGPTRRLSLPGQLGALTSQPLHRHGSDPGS
T1 sequence (P10635 whole entry): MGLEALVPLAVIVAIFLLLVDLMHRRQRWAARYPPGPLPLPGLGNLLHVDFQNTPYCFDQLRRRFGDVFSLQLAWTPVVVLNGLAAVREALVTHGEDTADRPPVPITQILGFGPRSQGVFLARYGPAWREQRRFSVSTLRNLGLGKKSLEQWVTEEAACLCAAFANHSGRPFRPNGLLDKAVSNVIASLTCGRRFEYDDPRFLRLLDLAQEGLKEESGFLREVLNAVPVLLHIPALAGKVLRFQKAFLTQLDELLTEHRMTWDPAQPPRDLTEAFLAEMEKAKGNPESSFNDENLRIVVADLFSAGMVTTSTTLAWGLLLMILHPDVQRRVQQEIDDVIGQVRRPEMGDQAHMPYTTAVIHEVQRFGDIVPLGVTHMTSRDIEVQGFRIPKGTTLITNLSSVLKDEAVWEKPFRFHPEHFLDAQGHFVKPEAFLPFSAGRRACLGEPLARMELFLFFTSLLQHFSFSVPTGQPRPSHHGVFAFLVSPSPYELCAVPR
T2 sequence (P11712 whole entry): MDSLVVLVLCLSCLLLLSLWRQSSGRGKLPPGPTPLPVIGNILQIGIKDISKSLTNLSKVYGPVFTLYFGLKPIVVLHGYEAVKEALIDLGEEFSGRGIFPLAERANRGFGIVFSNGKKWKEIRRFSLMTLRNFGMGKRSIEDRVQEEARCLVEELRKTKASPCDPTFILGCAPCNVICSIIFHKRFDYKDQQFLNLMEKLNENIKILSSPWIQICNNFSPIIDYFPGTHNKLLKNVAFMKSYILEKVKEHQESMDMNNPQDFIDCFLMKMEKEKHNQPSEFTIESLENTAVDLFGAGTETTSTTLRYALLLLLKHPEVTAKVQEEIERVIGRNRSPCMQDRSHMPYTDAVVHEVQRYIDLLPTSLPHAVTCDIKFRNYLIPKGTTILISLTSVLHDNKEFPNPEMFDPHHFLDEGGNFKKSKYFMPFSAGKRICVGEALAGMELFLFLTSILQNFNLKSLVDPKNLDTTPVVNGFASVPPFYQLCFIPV

Compound	pIC50 [1]	pIC50 [2]	pIC50 [3]	fraction unbound at 18 h, 20 µM [4]
CCc1cc(Nc2cc(OC)nc(N3CCC[C@H]3c3cc(-c4ncccn4)no3)n2)n[nH]1 [Comparative Example A, (S)-6-Methoxy-2-{2-[3-(pyrimid-2-yl)isoxazol-5-yl]pyrrolidin-1-yl}-4-(5-ethyl-1H-pyrazol-3-ylamino)pyrimidine]	4.60	< 5.00	< 5.00	0.0205
COc1cc(Nc2cc(C)n[nH]2)nc(N2CCC[C@H]2c2cc(-c3ncccn3)no2)n1 [Example 1, (S)-6-Methoxy-2-{2-[3-(pyrimid-2-yl)isoxazol-5-yl]pyrrolidin-1-yl}-4-(5-methyl-1H-pyrazol-3-ylamino)pyrimidine]	< 4.49	< 5.00	< 5.00	0.0523
